Assay results reported in patent US9216973B2, “Insecticidal compounds” (Syngenta Participations AG, priority 2008, dated 2015).

Legend:
Assay type in all cases: in vivo
[1] = test system: Thrips tabaci (Onion thrips); experiment: Thrips tabaci sunflower leaf disc spray test; details: for pest or weed control at 200 ppm: foliar, 168 h, 200 ppm spray on sunflower leaf discs, population of mixed ages, mortality after 7 days; for effect on mortality, feeding behavior, or growth regulation: same protocol, 200 ppm
Experimental: (§1) This Example illustrates the insecticidal and acaricidal properties of compounds of formula (I). The tests were performed as follows:
(§2) Cotton leaf discs were placed on agar in a 24-well microtiter plate and sprayed with test solutions at an application rate of 200 ppm. After drying, the leaf discs were infested with 5 L1 larvae. The samples were checked for mortality, feeding behavior, and growth regulation 3 days after treatment (DAT). The following compound gave at least 80% control of Spodoptera littoralis: A1, A2, A5, A6, A7, A8, A10, A11, A12, A13, A14, A15, A16, A17, A18, A19, A21, A22, A23, A24, A25, A30, A31, A32, A33, A34, A35, A39, A40, A41 A42, A43, A44, A45, A46, A47, A48, A49, A50, A51, A53, A54, A55, A59, A60, A61, A62. Heliothis virescens (Tobacco budworm): Eggs (0-24 h old) were placed in 24-well microtiter plate on artificial diet and treated with test solutions at an application rate of 200 ppm (concentration in well 18 ppm) by pipetting. After an incubation period of 4 days, samples were checked for egg mortality, larval mortality, and growth regulation. The following compound gave at least 80% control of Heliothis virescens: A1, A2, A3, A4, A5, A6, A7, A8, A10, A11, A12, A13, A14, A15, A16, A18, A19, A21, A22, A24, A25, A30, A31, A32, A33, A34, A35, A37, A38, A39, A40, A42, A43, A44, A45, A46, A47, A48, A49, A50, A51, A55, AA57, A58, A59, A60, A61, A62. Plutella xylostella (Diamond back moth): 24-well microtiter plate (MTP) with artificial diet was treated with test solutions at an application rate of 200 ppm (concentration in well 18 ppm) by pipetting. After drying, the MTP's were infested with L2 larvae (7-12 per well). After an incubation period of 6 days, samples were checked for larval mortality and growth regulation. The following compound gave at least 80% control of Plutella xylostella: A1, A2, A5, A6, A7, A8, A9, A10, A11, A12, A13, A14, A15, A16, A17, A18, A19, A20, A21, A22, A24, A25, A30, A31, A32, A33, A34, A35, A37, A38, A39, A40, A42, A43, A44, A45, A46, A47, A48, A49, A50, A51, A52, A53, A54, A55, A57, A58, A59, A60, A61, A62, B3. Diabrotica balteata (Corn root worm): A 24-well microtiter plate (MTP) with artificial diet was treated with test solutions at an application rate of 200 ppm (concentration in well 18 ppm) by pipetting. After drying, the MTP's were infested with L2 larvae (6-10 per well). After an incubation period of 5 days, samples were checked for larval mortality and growth regulation. The following compound gave at least 80% control of Diabrotica balteata: A1, A2, A5, A6, A7, A10, A11, A12, A13, A14, A15, A16, A17, A18, A19, A21, A22, A24, A25, A30, A31, A32, A33, A34, A35, A38, A39, A40, A42, A43, A44, A45, A46, A47, A48, A49, A50, A59, A60, A61, A62. Thrips tabaci (Onion thrips): Sunflower leaf discs were placed on agar in a 24-well microtiter plate and sprayed with test solutions at an application rate of 200 ppm. After drying, the leaf discs were infested with an […] population of mixed ages. After an incubation period of 7 days, samples were checked for mortality. The following compounds gave at least 80% control of Thrips tabaci: A1, A2, A5, A6, A7, A8, A10, A12, A13, A14, A15, A16, A17, A18, A19, A21, A24, A25, A30, A31, A32, A33, A34, A35, A39, A42, A43, A44, A45, A46, A47, A48, A49, A50, A51, A53, A54, A57, A58, A59, A60, A61, A62. Tetranychus urticae (Two-spotted spider mite): Bean leaf discs on agar in 24-well microtiter plates were sprayed with test solutions at an application rate of 200 ppm. After drying, the leaf discs are infested with mite populations of mixed ages. 8 days later, discs are checked for egg mortality, larval mortality, and adult mortality. The following compound gave at least 80% control of Tetranychus urticae: A1, A2, A4, A5, A6, A7, A8, A10, A11, A12, A13, A14, A15, A16, A17, A18, A19, A20, A21, A22, A30, A31, A32, A33, A34, A35, A39, A40, A41, A42, A43, A44, A45, A46, A47, A48, A49, A50, A51, A53, A54, A55, A57, A59, A60, A61, A62.

[2] = test system: Tetranychus urticae (Two-spotted spider mite); experiment: Tetranychus urticae bean leaf disc spray test; details: for pest or weed control at 200 ppm: foliar, 192 h, 200 ppm spray on bean leaf discs, mite populations of mixed ages, egg, larval and adult mortality 8 days later, read-out: control of Tetranychus urticae; for effect on mortality, feeding behavior, or growth regulation: same protocol, 200 ppm
Experimental: as §1, §2

[3] = test system: Diabrotica balteata (Corn root worm); experiment: Diabrotica balteata larvae test on artificial diet; details: for pest or weed control at 200 ppm: 120 h, 200 ppm (concentration in well 18 ppm), artificial diet, L2 larvae, larval mortality and growth regulation after 5 days; for effect on mortality, feeding behavior, or growth regulation: same protocol, 200 ppm
Experimental: as §1, §2

| SMILES | pest or weed control at 200 ppm [1] | pest or weed control at 200 ppm [2] | pest or weed control at 200 ppm [3] | effect on mortality, feeding behavior, or growth regulation [3] | effect on mortality, feeding behavior, or growth regulation [1] | effect on mortality, feeding behavior, or growth regulation [2] |
| --- | --- | --- | --- | --- | --- | --- |
| Cc1cc(C2=NOC(c3cc(Cl)cc(Cl)c3)(C(F)(F)F)C2Br)ccc1C(=O)NC1C[S+]([O-])C1 (stereo not shown) [A7] | ≥ 80% | ≥ 80% |  |  |  |  |
| Cc1cc(C2=NCC(c3cc(Cl)cc(Cl)c3)(C(F)(F)F)C2)ccc1C(=O)NC1C[S+]([O-])C1 (stereo not shown) [A48] | ≥ 80% | ≥ 80% | ≥ 80% |  |  |  |
| Cc1cc(C2=NOC(c3cc(Cl)cc(Cl)c3)(C(F)(F)F)C2F)ccc1C(=O)NC1CS(=O)(=O)C1 (stereo not shown) [A59] | ≥ 80% | ≥ 80% | ≥ 80% |  |  |  |
| Cc1cc(C2=NOC(c3cc(Cl)cc(Cl)c3)(C(F)(F)F)C2F)ccc1C(=O)NC1(C)CSC1 (stereo not shown) [A60] | ≥ 80% | ≥ 80% | ≥ 80% |  |  |  |
| Cc1cc(C2=NOC(c3cc(Cl)cc(Cl)c3)(C(F)(F)F)C2O)ccc1C(=O)NC1C[S+]([O-])C1 (stereo not shown) [A53] | ≥ 80% | ≥ 80% |  |  |  |  |
| Cc1cc(C2=NOC(c3cc(Cl)cc(Cl)c3)(C(F)(F)F)C2F)ccc1C(=O)NC1CSC1 (stereo not shown) [A61] | ≥ 80% | ≥ 80% | ≥ 80% |  |  |  |
| O=C(NC1CS(=O)(=O)C1)c1ccc(C2=NOC(c3cc(Cl)cc(Cl)c3)(C(F)(F)F)C2)c2nsnc12 (stereo not shown) [A22] |  | ≥ 80% | ≥ 80% |  |  |  |
| Cc1cc(C2=NN(C)C(c3cc(Cl)cc(Cl)c3)(C(F)(F)F)C2)ccc1C(=O)NC1CSC1 (stereo not shown) [A14] | ≥ 80% | ≥ 80% | ≥ 80% |  |  |  |
| Cc1cc(C2=NOC(c3cc(Cl)cc(Cl)c3)(C(F)(F)F)C2Cl)ccc1C(=O)NC1(C)CSC1 (stereo not shown) [A33] | ≥ 80% | ≥ 80% | ≥ 80% |  |  |  |
| Cc1cc(C2=NOC(c3cc(Cl)cc(Cl)c3)(C(F)(F)F)C2O)ccc1C(=O)NC1CSC1 (stereo not shown) [A54] | ≥ 80% | ≥ 80% |  |  |  |  |
| Cc1nc2c(C3=NOC(c4cc(Cl)cc(Cl)c4)(C(F)(F)F)C3)ccc(C(=O)NC3(C)CSC3)c2o1 (stereo not shown) [A27] |  |  |  | little or no effect | little or no effect | little or no effect |
| CC1(NC(=O)c2ccc(C3=NOC(c4cc(Cl)cc(Cl)c4)(C(F)(F)F)C3)c3ccccc23)CSC1 (stereo not shown) [A1] | ≥ 80% | ≥ 80% | ≥ 80% |  |  |  |
| O=C(NC1CS(=O)(=O)C1)c1ccc(C2=NOC(c3cc(Cl)cc(Cl)c3)(C(F)(F)F)C2Br)c2ccccc12 (stereo not shown) [A42] | ≥ 80% | ≥ 80% | ≥ 80% |  |  |  |
| O=C(NC1CS(=O)(=O)C1)c1ccc(C2=NOC(c3cc(Cl)cc(Cl)c3)(C(F)(F)F)C2)c2ccccc12 (stereo not shown) [A15] | ≥ 80% | ≥ 80% | ≥ 80% |  |  |  |
| Cc1cc(C2=NOC(c3cc(Cl)cc(Cl)c3)(C(F)(F)F)C2Br)ccc1C(=O)NC1(C)CSC1 (stereo not shown) [A5] | ≥ 80% | ≥ 80% | ≥ 80% |  |  |  |
| Cc1cc(C2=NOC(c3cc(Cl)cc(Cl)c3)(C(F)(F)F)C2Cl)ccc1C(=O)NC1CS(=O)(=O)C1 (stereo not shown) [A32] | ≥ 80% | ≥ 80% | ≥ 80% |  |  |  |
| Cc1cc(C2=NOC(c3cc(Cl)cc(Cl)c3)(C(F)(F)F)C2O)ccc1C(=O)NC1CS(=O)(=O)C1 (stereo not shown) [A51] | ≥ 80% | ≥ 80% |  |  |  |  |
| Cc1cc(C2=NOC(c3cc(Cl)cc(Cl)c3)(C(F)(F)F)C2Cl)ccc1C(=O)NC1C[S+]([O-])C1 (stereo not shown) [A34] | ≥ 80% | ≥ 80% | ≥ 80% |  |  |  |
| Cc1cc(C2CC(c3cc(Cl)cc(Cl)c3)(C(F)(F)F)ON2C)ccc1C(=O)NC1C[S+]([O-])C1 (stereo not shown) [A18] | ≥ 80% | ≥ 80% | ≥ 80% |  |  |  |
| Cc1cc(C2=NN(C)C(c3cc(Cl)cc(Cl)c3)(C(F)(F)F)C2)ccc1C(=O)NC1C[S+]([O-])C1 (stereo not shown) [A13] | ≥ 80% | ≥ 80% | ≥ 80% |  |  |  |
| Cc1cc(C2CC(c3cc(Cl)cc(Cl)c3)(C(F)(F)F)ON2C)ccc1C(=O)NC1CSC1 (stereo not shown) [A21] | ≥ 80% | ≥ 80% | ≥ 80% |  |  |  |
| Cc1cc(C2=NOC(c3cc(Cl)cc(Cl)c3)(C(F)(F)F)O2)ccc1C(=O)NC1CSC1 (stereo not shown) [A17] | ≥ 80% | ≥ 80% | ≥ 80% |  |  |  |
| Cc1cc(C2=NOC(c3cc(Cl)cc(Cl)c3)(C(F)(F)F)/C2=N/O)ccc1C(=O)NC1(C)CSC1 (stereo not shown) [A56] |  |  |  | little or no effect | little or no effect | little or no effect |
| Cc1cc(C2=NN(C)C(c3cc(Cl)cc(Cl)c3)(C(F)(F)F)C2)ccc1C(=O)NC1(C)CSC1 (stereo not shown) [A12] | ≥ 80% | ≥ 80% | ≥ 80% |  |  |  |
| Cc1cc(C2=NCC(c3cc(Cl)cc(Cl)c3)(C(F)(F)F)C2)ccc1C(=O)NC1(C)CSC1 (stereo not shown) [A47] | ≥ 80% | ≥ 80% | ≥ 80% |  |  |  |
| Cc1nc2c(C3=NOC(c4cc(Cl)cc(Cl)c4)(C(F)(F)F)C3)ccc(C(=O)NC3C[S+]([O-])C3)c2o1 (stereo not shown) [A28] |  |  |  | little or no effect | little or no effect | little or no effect |
| Cc1cc(N2CC(c3cc(Cl)cc(Cl)c3)(C(F)(F)F)OC2=O)ccc1C(=O)NC1CSC1 (stereo not shown) [A11] |  | ≥ 80% | ≥ 80% |  |  |  |
| O=C(NC1CSC1)c1ccc(C2=NOC(c3cc(Cl)cc(Cl)c3)(C(F)(F)F)C2)c2ccccc12 (stereo not shown) [A2] | ≥ 80% | ≥ 80% | ≥ 80% |  |  |  |
| Cc1cc(C2=NOC(c3cc(Cl)cc(Cl)c3)(C(F)(F)F)/C2=N/O)ccc1C(=O)NC1CS(=O)(=O)C1 (stereo not shown) [A55] |  | ≥ 80% |  |  |  |  |
